Data from ChEMBL document CHEMBL1201862, “PubChem BioAssay data set” (2004).
Active and inactive are the calls of the source.

Columns and labels:
[1] = NIH3T3 cell viability loss – ATP luminescence, mouse fibroblasts, counter-screen, dose response (AID 2010); assay type: functional, cell-based;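 also: cells exposed to compound for about 90 hours before reading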
[2] = Trypanosoma cruzi growth suppression in host cells – NIH3T3 host cells, beta-gal luminescence, confirmation (AID 2044); assay type: functional, cell-based;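 also: intracellular parasites grown in NIH/3T3 mouse fibroblasts as host cells; luminescent beta-galactosidase reporter signal from transgenic T. cruzi replicating inside host cells; inhibitors lower the luminescence signal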
[3] = molecular target: T1, Polyadenylate-binding protein 1 (Homo sapiens, UniProt P11940); test: MLLE binding blockers, Cy5 peptide tracer – biochemical, fluorescence polarization, Cy5-PAM2 peptide, secondary, miRNA deadenylation inhibitor project, dose response (AID 602260); assay type: functional; settings: read-out: IC50_Mean
[4] = blockade of melanocortin 4 receptor signaling – cell-based, plate reader, cherry pick, counter-screen for LGR2 antagonist project, dose response (AID 743444); assay type: functional;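 also: transfected HEK 293 cells stimulated with alpha-MSH peptide; potency of inhibitors of the alpha-MSH evoked signal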
[5] = loss of viability in HepG2 cells – cell-based, CellTiter-Glo, cherry-picked, cytotoxicity control for Shn3 inhibitor project, dose response (AID 624134); assay type: functional
[6] = molecular target: Bifunctional protein GlmU (Mycobacterium tuberculosis, UniProt P9WMN3); test: Inhibitors of Mycobacterial Glucosamine-1-phosphate acetyl transferase (GlmU). Secondary screen.; design: species or system Mycobacterium tuberculosis H37Rv
Protein RecA = molecular target: T2, Protein RecA (Mycobacterium tuberculosis, UniProt P9WHJ3); test: Fluorescence Cell-Free Homogeneous Dose Retest to Identify Inhibitors of RecA-Intein Splicing Activity. [Related pubchem assays (depositor defined):AID2097, AID2223, AID489010, AID492950]; assay type: functional
T2 sequence (P9WHJ3 whole entry): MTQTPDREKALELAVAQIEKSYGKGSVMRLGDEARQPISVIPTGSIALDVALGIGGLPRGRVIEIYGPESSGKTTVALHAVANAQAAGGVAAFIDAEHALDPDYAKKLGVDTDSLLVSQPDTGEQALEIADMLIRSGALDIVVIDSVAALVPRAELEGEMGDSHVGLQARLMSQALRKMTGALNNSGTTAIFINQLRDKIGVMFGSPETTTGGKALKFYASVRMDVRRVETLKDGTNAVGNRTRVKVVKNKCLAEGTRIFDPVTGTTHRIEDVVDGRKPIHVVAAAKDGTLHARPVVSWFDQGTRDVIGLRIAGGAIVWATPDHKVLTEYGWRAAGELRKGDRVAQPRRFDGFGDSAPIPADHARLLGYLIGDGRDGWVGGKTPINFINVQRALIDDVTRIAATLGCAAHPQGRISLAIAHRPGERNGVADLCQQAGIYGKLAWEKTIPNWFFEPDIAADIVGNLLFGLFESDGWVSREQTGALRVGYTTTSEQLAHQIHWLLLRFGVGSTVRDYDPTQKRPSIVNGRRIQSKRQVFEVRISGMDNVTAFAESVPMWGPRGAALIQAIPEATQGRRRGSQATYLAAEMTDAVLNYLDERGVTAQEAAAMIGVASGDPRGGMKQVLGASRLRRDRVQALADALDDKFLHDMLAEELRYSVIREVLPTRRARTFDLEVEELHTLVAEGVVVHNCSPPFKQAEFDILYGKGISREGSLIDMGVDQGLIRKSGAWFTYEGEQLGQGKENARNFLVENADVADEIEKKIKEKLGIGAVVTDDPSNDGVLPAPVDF

[7] = molecular target: Heat shock protein HSP 90-alpha (Homo sapiens, UniProt P07900); assay type: functional, organism-based
[8] = reduced cellular PGC1a acetyl-lysine signal – cell-based, cherry-picked samples, dose response (AID 720514); assay type: functional;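 also: potency may reflect raised or lowered acetylation signal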
[9] = molecular target: T3, Replicative DNA helicase DnaB (Mycobacterium tuberculosis, UniProt P9WMR3); test: DnaB intein splicing inhibitors, dose response, biochemical, cell-free fluorescence (AID 449749); assay type: functional
T3 sequence (P9WMR3 whole entry): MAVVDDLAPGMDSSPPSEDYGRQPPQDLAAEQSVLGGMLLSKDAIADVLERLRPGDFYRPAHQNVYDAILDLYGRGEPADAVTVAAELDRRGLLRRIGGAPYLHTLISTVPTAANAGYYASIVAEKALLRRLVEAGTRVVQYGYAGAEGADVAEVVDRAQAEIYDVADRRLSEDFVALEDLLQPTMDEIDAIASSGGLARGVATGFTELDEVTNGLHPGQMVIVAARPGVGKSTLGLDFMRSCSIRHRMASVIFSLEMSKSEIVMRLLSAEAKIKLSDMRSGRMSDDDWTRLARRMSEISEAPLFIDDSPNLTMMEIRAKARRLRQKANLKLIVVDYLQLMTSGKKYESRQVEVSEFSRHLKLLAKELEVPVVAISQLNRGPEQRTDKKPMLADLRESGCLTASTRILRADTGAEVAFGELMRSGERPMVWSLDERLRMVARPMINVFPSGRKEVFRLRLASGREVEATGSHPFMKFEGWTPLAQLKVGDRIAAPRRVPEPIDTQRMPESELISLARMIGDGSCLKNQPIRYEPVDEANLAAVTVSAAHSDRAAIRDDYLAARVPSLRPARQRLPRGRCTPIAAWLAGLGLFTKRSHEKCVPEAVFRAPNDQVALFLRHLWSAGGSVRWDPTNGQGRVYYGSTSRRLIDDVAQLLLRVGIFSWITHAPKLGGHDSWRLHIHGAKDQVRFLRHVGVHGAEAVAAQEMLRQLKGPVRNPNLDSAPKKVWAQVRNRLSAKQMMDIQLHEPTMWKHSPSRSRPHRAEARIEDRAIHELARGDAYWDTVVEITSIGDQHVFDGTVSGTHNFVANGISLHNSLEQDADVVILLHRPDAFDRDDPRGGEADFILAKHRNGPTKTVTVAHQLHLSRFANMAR

[10] = toxicity toward HepG2 liver cells – cell-based, plate reader, cherry-pick, antagonist series, cytotoxicity control, dose response (AID 743416); assay type: functional
[11] = reduction of Shn3 3'UTR-driven luciferase in osteoblasts – cell-based, Clone20 osteoblasts, firefly luciferase, cherry-picked, dose response (AID 624132); assay type: functional;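 also: firefly luciferase luminescence from reporter carrying the Shn3 3'UTR in osteoblasts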
[12] = molecular target: T4, Short transient receptor potential channel 4 (Mus musculus, UniProt Q9QUQ5); test: block of DAMGO-driven TRPC4 calcium entry – cell-based, HEK293 TRPC4/mu-opioid, Fluo-4 calcium, dose response (AID 434942); assay type: functional;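 also: potency of inhibitors blocking the TRPC4 calcium response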
T4 sequence (Q9QUQ5 whole entry): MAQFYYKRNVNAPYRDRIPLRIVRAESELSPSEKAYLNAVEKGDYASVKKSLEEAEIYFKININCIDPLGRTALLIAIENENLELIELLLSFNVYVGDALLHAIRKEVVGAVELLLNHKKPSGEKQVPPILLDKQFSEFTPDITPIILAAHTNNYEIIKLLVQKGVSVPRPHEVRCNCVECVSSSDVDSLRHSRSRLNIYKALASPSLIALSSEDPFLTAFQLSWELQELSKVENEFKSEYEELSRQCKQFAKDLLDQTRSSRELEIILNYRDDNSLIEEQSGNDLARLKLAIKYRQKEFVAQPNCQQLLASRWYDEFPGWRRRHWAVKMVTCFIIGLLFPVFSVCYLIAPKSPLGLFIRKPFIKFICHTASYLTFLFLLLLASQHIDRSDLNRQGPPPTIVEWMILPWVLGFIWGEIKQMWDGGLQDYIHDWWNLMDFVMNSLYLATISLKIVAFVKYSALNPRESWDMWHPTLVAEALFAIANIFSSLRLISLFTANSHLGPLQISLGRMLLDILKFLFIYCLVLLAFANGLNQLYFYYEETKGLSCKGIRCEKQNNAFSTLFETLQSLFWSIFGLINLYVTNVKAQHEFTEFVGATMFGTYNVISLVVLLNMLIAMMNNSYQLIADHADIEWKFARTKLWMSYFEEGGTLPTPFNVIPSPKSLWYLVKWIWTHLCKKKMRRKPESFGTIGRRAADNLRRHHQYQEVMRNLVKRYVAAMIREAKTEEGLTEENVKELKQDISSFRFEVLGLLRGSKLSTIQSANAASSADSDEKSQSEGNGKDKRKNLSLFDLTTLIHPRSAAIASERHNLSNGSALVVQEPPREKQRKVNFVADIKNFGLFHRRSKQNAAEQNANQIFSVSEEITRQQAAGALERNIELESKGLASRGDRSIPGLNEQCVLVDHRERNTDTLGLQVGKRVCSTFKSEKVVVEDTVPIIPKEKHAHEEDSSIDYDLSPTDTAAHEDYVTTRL

[13] = molecular target: T1, Polyadenylate-binding protein 1; test: MLLE domain peptide-binding blockers, IC50 – biochemical, fluorescence polarization, FITC-PAM2 peptide, dose response (AID 602259); assay type: functional; settings: read-out: IC50_Mean
[14] = non-specific 3'UTR reporter inhibition in Clone20-Shn3RL – cell-based, Renilla luciferase, cherry-picked, counter-screen for Shn3 inhibitor project, dose response (AID 624133); assay type: functional
CHO = CHO cell viability loss, potency – luminescence, cytotoxicity control for TLR9-MyD88 binding inhibitor project, dose response (AID 588339); assay type: functional, cell-based, hamster; settings: Cricetulus griseus;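 also: CHO cells stably coexpressing TLR9 and MyD88 fusions from primary screen; compound exposure lasted 48 hours before viability readout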
Beta Lactamase = Beta Lactamase (Pseudomonas aeruginosa, UniProt Q932Y6); test: BLA reporter interference, concentration series – BLA reporter cells, FRET fluorescence, artefact control for TLR9-MyD88 binding inhibitor project, dose response (AID 588341); assay type: cell-based;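 also: cell based assay in CHO-K1 cells stably expressing beta-lactamase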
[15] = blockers of bursicon-stimulated LGR2 cAMP reporter – cell-based, HEK293, CRE-luciferase reporter, cherry pick, set 2, dose response (AID 743343); assay type: functional;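 also: transfected cells were stimulated with diluted bursicon conditioned medium after compound addition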
[16] = A549 cell cytotoxicity, dose response, cytotoxicity control, plate reader, cherry-pick, antagonist series (AID 743412); assay type: functional, cell-based
[17] = viability loss in HEK293 cells – cell-based, plate reader, cherry-picked samples, cytotoxicity control, dose response (AID 743446); assay type: functional
Prothrombin = Prothrombin (Homo sapiens, UniProt P00734); test: Thrombin 1536 HTS Dose Response Confirmation. [Related pubchem assays: 1046 (Thrombin 1536 HTS; hits were confirmed in this assay)]; assay type: functional

T1 sequence (P11940 whole entry): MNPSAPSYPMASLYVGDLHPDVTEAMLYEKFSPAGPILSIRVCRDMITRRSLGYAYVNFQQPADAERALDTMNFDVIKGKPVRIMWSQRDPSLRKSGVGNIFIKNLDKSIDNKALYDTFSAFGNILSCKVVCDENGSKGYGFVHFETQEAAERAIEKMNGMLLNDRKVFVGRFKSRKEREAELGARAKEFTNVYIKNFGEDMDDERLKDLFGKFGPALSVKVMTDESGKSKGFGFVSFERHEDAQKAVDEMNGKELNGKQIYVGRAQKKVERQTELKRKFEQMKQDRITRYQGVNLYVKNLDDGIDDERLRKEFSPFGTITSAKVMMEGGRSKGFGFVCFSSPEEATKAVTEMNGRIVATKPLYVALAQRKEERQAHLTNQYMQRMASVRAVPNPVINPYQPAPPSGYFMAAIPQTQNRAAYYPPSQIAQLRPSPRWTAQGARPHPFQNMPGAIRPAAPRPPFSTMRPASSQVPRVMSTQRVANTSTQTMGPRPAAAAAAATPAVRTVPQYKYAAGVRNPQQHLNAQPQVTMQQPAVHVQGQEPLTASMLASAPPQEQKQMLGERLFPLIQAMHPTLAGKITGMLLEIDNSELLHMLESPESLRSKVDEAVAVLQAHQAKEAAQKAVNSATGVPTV
Beta Lactamase, sequence (Q932Y6 whole entry): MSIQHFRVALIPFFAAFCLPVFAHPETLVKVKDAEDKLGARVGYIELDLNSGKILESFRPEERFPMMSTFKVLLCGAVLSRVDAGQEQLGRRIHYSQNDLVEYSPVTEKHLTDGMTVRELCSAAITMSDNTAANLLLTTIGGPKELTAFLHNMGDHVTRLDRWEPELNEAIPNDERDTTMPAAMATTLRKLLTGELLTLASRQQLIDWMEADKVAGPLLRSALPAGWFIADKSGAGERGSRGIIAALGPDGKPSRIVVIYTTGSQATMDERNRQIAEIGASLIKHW
Bifunctional protein GlmU, sequence (P9WMN3 whole entry): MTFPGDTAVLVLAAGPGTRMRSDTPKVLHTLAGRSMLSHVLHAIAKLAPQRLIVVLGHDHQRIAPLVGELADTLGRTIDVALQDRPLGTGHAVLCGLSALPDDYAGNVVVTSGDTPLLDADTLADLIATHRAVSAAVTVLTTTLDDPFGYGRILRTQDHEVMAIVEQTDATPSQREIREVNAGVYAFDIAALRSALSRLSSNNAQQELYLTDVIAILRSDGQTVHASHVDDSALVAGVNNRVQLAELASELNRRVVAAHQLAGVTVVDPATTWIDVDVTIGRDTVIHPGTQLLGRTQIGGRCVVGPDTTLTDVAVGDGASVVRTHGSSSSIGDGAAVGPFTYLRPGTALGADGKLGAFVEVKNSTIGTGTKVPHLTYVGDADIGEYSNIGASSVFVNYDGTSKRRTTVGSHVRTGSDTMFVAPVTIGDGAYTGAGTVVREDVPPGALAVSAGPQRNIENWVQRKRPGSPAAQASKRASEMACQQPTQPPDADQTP

For `CC(Oc1ccc(Br)cc1)C(=O)Nc1ccc(S(=O)(=O)N(C)C2CCN(C)CC2)cc1` (centres undefined), the EC50 [1] was 8.64 µM (active), the EC50 (cells) was 0.073 µM (active) and the EC50 [2] was < 0.1 µM (active).

With `CCCNC(=O)c1nnsc1[S+]([O-])c1ccc(Cl)cc1` (centres undefined) the IC50 [3] was > 66 µM (inactive), the AC50 [4] was 2.29 µM (active) and the AC50 [5] was 29.7 µM (active). For the same compound, the IC50 [6] was 103 µM (active), the EC50 (Protein RecA) was 24.4 µM (inconclusive) and the EC50 [1] was 2.21 µM (active). The AC50 [7] was 2.2 µM (active), the AC50 [8] was 12.8 µM (active) and the AC50 [9] was 33.8 µM (active). For the same compound, the AC50 [10] was 7.07 µM (active), the AC50 [11] was 1.26 µM (active) and the EC50 [12] was 7.5 µM (active). For the same compound, the IC50 [13] was > 66 µM (inactive), the AC50 [14] was 6.98 µM (active) and the IC50 (CHO) was 1.81 µM (active). The IC50 (Beta Lactamase) was 15.6 µM (inactive), the EC50 [2] was 0.886 µM (active) and the AC50 [15] was 1.85 µM (active). The AC50 [16] was 4.44 µM (active) and the AC50 [17] was 16 µM (active).

In the case of `Cn1cc(C(=O)NCc2cccs2)c(=O)c2cc(S(=O)(=O)N3CCCC3)ccc21`, the IC50 (Prothrombin) is reported as 0.691 µM (active).
